The record followed here is patent US11230524B2, “Myocyte enhancer factor 2 (MEF2) modulators” (STANDARD LLC, priority 2017, dated 2022).

Assay type in all cases: cell-based
Experiment [1] concerns the target MEF2D/HDAC4 protein-protein interactions (Homo sapiens (Human), UniProt Q14814). Briefly: Mammalian two-hybrid assay, inhibition of MEF2D and HDAC4 protein interactions (luciferase reporter in HeLa cells). The settings on record: HeLa cells co-transfected with GAL4-MEF2D, HDAC4-VP16 and Gal4Luc; overnight treatment; luciferase normalized to Renilla. From the text:
Detection of MEF2D and HDAC4 interactions. In this mammalian two-hybrid assay, HDAC4 and MEF2D proteins were used. […] Human epithelial carcinoma cells (HeLa) were co-transfected with the two DNA constructs (GAL4-MEF2D and HDAC4-VP16) and a reporter plasmid (Gal4Luc). […] MEF2D and HDAC4 protein interactions were detected as a result of the GAL4-MEF2D and HDAC4-VP16 protein complex binding a DNA promoter on the reporter plasmid (Gal4Luc) and driving cellular expression of a luciferase gene. The measured luciferase protein signal was proportional to the amount of MEF2D and HDAC4 protein interactions occurring with the cell.
The HDAC4 fragment lacked the catalytic domain so that the deacetylase activity was excluded from the assay.
Detection of inhibition of MEF2D and HDAC4 interactions. Next, the assay was used to test whether the compounds could disrupt the interactions between MEF2D and HDAC4. After co-expressing the GAL4-MEF2D and HDAC4-VP16 DNA constructs and reporter plasmid, the HeLa cells were treated with a test compound (10 μM) overnight. Cells transfected with the positive control GAL4VP16 fusion construct and reporter plasmid were also treated with the test compound (10 μM) overnight. As another control, DMSO was added (but kept below 0.2% V/V) to cells transfected with the positive GAL4VP16 fusion construct or the GAL4-MEF2D and HDAC4-VP16 DNA constructs. A luciferase assay was performed as described above according to the manufacturer's protocol (Promega). The luciferase response was normalized against the Renilla Luciferase as an internal control.
The relative activity and IC50 calculations. […] The relative activity, I, was the ratio of former to later, i.e. X/Y, expressed in percentile. […] The IC50 was the concentration of the compounds when X/Y equals 50.
On the technique in general: A reporter such as luciferase makes a cellular process visible.

Experiment [2] addresses MEF2D/p300 protein-protein interactions (Homo sapiens (Human), UniProt Q14814). Briefly: Mammalian two-hybrid assay, inhibition of MEF2D and P300 protein interactions (luciferase reporter in HeLa cells). Conditions: HeLa cells co-transfected with GAL4-MEF2D, P300-VP16 and Gal4Luc. From the text: Detection of MEF2D and P300 interactions. The same system that was used in Example 19 is used in here to detect MEF2D and P300 interactions. In this assay, two separate DNA constructs were made with MEF2D fused with the GAL4 DNA binding domain (GAL4-MEF2D) and P300 fused with the viral transactivator VP-16 ([…]). Human epithelial carcinoma cells (HeLa) were co-transfected with the two DNA constructs (GAL4-MEF2D and P300-VP16) and a reporter plasmid (Gal4Luc). […] MEF2D and P300 protein interactions were detected as a result of the GAL4-MEF2D and P300-VP16 protein complex binding a DNA promoter on the reporter plasmid (Gal4Luc) and driving cellular expression of a luciferase gene. The measured luciferase protein signal was proportional to the amount of MEF2D and P300 protein interactions occurring with the cell.
The relative activity and IC50 calculations. The IC50 concentrations were calculated in the same manner as described for Example 19.

The test system of experiment [3] is neonatal rat ventricular myocytes (NRVMs). Briefly: Inhibition of fetal calf serum induced cardiomyocyte hypertrophy in vitro. Conditions: Rattus norvegicus, Ventricular myocyte; serum-starved NRVMs, 5% FCS, myocyte size 48 hours after treatment; concentration reducing FCS-induced hypertrophy by 50%. The protocol: To evaluate the ability of the test compounds to inhibit cardio myocyte hypertrophy in vitro, serum-starved neonatal rat ventricular myocytes (NRVMs) were exposed to medium with 5% Fetal Calf Serum (FCS), a powerful activator of myoctye growth (hypertrophy) and treated with one of the compounds at doses ranging from 0.2-10 μM or with the vehicle (dimethyl sulfoxide (DMSO)). Control cells received fresh media without serum. The myocyte size was determined 48 hours after treatment. The results in Table 7 show the concentrations of the test compounds required to reduce the FCS-induced hypertrophy in the NRVMs by 50% (IC50 μM).

Each structure is given as a SMILES string. Counter-ions that a name gives are not always drawn.

Broadly, the IC50 is the midpoint of a concentration-inhibition curve.

Sequence of MEF2D/p300 protein-protein interactions (Q14814 whole entry, species assumed, the tested form may be a part): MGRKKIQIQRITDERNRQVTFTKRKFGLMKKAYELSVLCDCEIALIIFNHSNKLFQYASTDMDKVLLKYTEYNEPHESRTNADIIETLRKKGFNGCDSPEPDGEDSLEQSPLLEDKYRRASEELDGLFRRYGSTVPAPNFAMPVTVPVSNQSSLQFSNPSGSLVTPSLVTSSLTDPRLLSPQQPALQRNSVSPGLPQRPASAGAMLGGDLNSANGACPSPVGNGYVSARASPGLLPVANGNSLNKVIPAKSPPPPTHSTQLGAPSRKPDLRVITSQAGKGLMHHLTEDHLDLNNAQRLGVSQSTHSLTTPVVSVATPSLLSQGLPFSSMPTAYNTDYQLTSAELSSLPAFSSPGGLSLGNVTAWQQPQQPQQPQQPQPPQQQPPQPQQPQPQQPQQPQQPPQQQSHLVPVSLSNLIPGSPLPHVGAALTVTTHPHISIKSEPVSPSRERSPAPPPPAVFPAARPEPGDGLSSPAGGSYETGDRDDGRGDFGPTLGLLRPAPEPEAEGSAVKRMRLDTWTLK
Sequence of MEF2D/HDAC4 protein-protein interactions (Q14814 whole entry, species assumed, the tested form may be a part): as above

For the molecule `Nc1ccccc1NC(=O)/C=C/c1cccc(CNc2ccccc2)c1` [ST1, (E)-N-(2-aminophenyl)-3-(3-((phenylamino)methyl)phenyl)acrylamide], the IC50 was 9.4 µM in experiment [1], 0.38 µM in experiment [2] and 0.81 µM in experiment [3].

As to `Cc1csc(NCc2cccc(/C=C/C(=O)Nc3ccccc3N)c2)n1` [ST66, (E)-N-(2-aminophenyl)-3-(3-((4-methylthiazol-2-ylamino)methyl)phenyl)acrylamide], the results for the half-inhibitory concentration (IC50) in experiment [1], in experiment [2] and in experiment [3] were 2.48 µM, 1.69 µM and 1420 µM, respectively.

Turning to `Nc1ccccc1NC(=O)/C=C/c1cccc(CNCc2cccc(OC3CC3)c2)c1` [ST13], the values for the IC50 in experiment [1], in experiment [2] and in experiment [3] were 1.52 µM, 0.79 µM and 0.12 µM, respectively.

Regarding `CCOC(=O)NC(CCCCC(=O)Nc1ccccc1N)C(=O)Nc1cccc(OC2CC2)c1` (stereo not drawn) [ST83, ethyl (7-((2-aminophenyl)amino)-1-((3-cyclopropoxyphenyl)amino)-1,7-dioxoheptan-2-yl)carbamate], the IC50 turned out to be 0.84 µM in experiment [1], 0.44 µM in experiment [2] and 3.85 µM in experiment [3].

`COC(=O)NC(CCCCC(=O)Nc1ccccc1N)C(=O)Nc1cccc(OCC(F)(F)F)c1` (stereo not drawn) [ST102, methyl (7-((2-aminophenyl)amino)-1,7-dioxo-1-((3-(2,2,2-trifluoroethoxy)phenyl)amino)heptan-2-yl)carbamate hydrochloride]: the figures for the IC50 in experiment [1], in experiment [2] and in experiment [3] were 0.94 µM, 1.2 µM and 0.71 µM, respectively.

As for `Nc1ccccc1NC(=O)CCCCC(NC(=O)c1cccnc1)C(=O)Nc1cccc(Br)c1` (stereo not drawn) [ST93, N^7-(2-aminophenyl)-N^1-(3-bromophenyl)-2-(nicotinamido)heptanediamide], the IC50 in experiment [1] is 0.61 µM; in experiment [2] it was 1.08 µM; in experiment [3], 5500 µM.
